{
  "source": "ChEMBL document CHEMBL4507292",
  "about": "(2021)",
  "key": {"[1]": {"molecular_target": "L-type calcium channel, benzothiazepine site (Cav1.2 alpha-1C) (Homo sapiens, UniProt Q13936)", "test": "Inhibition of Calcium Channel L-Type, Benzothiazepine at 10 µM in the Eurofins-Panlabs radioligand binding assay (Eurofins_assay_214510)", "parameters": "ligand concentration 2 nM, non-specific ligand with concentration 10 µM Diltiazem, incubation time 3h, incubation temperature 4 °C", "details": "male, Wistar, rat, rat whole brain preparation, probe [3H] Diltiazem, 2 nM; compound concentration 10 uM; target entry is the homologue from another species; call rule not given here"}, "[2]": {"molecular_target": "Voltage-dependent N-type calcium channel subunit alpha-1B (Homo sapiens) (UniProt Q00975)", "test": "Inhibition of Calcium Channel N-Type at 10 µM in the Eurofins-Panlabs radioligand binding assay (Eurofins_assay_216000)", "details": "Rattus norvegicus; Compound concentration 10.0 uM"}, "[3]": {"molecular_target": "Platelet-activating factor receptor (Homo sapiens) (UniProt P25105)", "test": "Inhibition of Platelet Activating Factor (PAF) at 10 µM in the Eurofins-Panlabs radioligand binding assay (Eurofins_assay_265010)", "details": "Compound concentration 10.0 uM"}, "Oryctolagus cuniculus": {"species": "Oryctolagus cuniculus", "test": "Inhibition of Purinergic P2X at 10 µM in the Eurofins-Panlabs radioligand binding assay (Eurofins_assay_268700)", "assay_type": "protein assay", "details": "Compound concentration 10.0 uM"}, "[4]": {"molecular_target": "Sodium-dependent noradrenaline transporter (Homo sapiens, UniProt P23975)", "sequence (P23975 whole entry)": "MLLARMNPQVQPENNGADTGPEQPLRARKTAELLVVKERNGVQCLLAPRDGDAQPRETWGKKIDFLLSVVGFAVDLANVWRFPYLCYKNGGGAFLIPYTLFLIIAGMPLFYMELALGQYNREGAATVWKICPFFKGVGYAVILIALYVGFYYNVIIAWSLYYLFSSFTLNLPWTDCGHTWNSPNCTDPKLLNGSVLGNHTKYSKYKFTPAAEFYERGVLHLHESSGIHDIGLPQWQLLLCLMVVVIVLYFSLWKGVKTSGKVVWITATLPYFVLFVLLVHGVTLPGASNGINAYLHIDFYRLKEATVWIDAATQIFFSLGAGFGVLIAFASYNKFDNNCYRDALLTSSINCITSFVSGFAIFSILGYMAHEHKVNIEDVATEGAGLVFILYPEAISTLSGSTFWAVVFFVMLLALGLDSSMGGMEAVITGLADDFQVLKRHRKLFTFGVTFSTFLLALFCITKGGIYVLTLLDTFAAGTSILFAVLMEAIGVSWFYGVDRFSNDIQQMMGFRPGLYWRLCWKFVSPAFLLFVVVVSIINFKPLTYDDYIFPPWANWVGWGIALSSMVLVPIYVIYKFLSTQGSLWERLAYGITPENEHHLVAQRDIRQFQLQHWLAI", "test": "Inhibition of Transporter, Norepinephrine (NET) at compound concentration of 10.0 uM in the Eurofins-Panlabs radioligand binding assay (Eurofins_assay_204410)", "parameters": "ligand concentration 0.2 nM, non-specific ligand with concentration 10 uM Desipramine, incubation time 3 h, incubation temperature 4 C"}, "[5]": {"molecular_target": "Calcitonin receptor (Homo sapiens) (UniProt P30988)", "sequence (P30988 whole entry)": "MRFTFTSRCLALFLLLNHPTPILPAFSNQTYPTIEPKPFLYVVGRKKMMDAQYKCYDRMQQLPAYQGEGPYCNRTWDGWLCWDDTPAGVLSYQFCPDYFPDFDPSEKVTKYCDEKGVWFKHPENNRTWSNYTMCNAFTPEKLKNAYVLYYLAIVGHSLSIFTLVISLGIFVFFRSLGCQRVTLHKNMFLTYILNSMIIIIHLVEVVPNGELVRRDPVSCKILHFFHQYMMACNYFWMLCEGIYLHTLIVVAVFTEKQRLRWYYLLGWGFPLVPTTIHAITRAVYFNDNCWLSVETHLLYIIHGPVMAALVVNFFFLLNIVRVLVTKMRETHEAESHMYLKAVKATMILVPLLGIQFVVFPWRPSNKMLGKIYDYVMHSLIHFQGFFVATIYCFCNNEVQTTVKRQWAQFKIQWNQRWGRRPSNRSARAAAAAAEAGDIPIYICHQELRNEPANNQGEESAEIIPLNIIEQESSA", "test": "Inhibition of Calcitonin at 10 µM in the Eurofins-Panlabs radioligand binding assay (Eurofins_assay_213610)"}, "[6]": {"molecular_target": "Melanocortin receptor 3 (Homo sapiens) (UniProt P41968)", "test": "Inhibition of Melanocortin MC3 at 10 µM in the Eurofins-Panlabs radioligand binding assay (Eurofins_assay_251300)", "parameters": "ligand concentration 0.035 nM", "details": "Compound concentration 10.0 uM"}, "[7]": {"molecular_target": "T1, Muscarinic acetylcholine receptor M5 (Homo sapiens) (UniProt P08912)", "T1 sequence (whole entry)": "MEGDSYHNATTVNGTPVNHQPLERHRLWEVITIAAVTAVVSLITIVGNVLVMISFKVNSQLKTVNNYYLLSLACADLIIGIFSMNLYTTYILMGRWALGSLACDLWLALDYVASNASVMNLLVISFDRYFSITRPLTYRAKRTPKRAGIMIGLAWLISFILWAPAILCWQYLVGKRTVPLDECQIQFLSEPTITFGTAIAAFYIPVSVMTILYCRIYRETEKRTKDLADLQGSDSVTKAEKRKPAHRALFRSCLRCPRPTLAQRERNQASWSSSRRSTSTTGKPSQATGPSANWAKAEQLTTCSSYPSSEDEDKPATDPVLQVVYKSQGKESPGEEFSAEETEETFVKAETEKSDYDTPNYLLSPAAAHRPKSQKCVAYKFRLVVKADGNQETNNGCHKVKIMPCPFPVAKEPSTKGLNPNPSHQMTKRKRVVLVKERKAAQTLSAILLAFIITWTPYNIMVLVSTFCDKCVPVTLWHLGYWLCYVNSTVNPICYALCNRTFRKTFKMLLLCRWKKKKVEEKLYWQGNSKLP", "test": "Inhibition of Muscarinic M5 at 10 µM in the Eurofins-Panlabs radioligand binding assay (Eurofins_assay_253010)", "parameters": "ligand concentration 0.8 nM", "details": "Compound concentration 10.0 uM"}, "Rattus norvegicus": {"species": "Rattus norvegicus", "test": "Protein Serine/Threonine Kinase, PKC, Non-Selective Eurofins-Panlabs enzyme assay", "details": "Compound concentration 10.0 uM"}, "Caspase-6 (Homo sapiens)": {"molecular_target": "Caspase-6 (Homo sapiens) (UniProt P55212)", "sequence (P55212 24-179 limits assumed)": "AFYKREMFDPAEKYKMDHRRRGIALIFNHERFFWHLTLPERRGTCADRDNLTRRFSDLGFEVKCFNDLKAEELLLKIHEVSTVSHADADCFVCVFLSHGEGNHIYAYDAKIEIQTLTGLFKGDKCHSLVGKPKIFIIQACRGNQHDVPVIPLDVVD", "sequence (P55212 194-293 limits assumed)": "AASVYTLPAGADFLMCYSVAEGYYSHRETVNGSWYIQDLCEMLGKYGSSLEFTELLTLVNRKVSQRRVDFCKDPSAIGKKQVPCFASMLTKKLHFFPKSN", "test": "Peptidase, CASP6 (Caspase 6) Eurofins-Panlabs enzyme assay", "parameters": "substrate with concentration", "details": "Compound concentration 10.0 uM"}, "[8]": {"molecular_target": "Endothelin-converting enzyme 1 (Homo sapiens) (UniProt P42892)", "test": "Peptidase, Endothelin Converting Enzyme-1 (ECE-1) Eurofins-Panlabs enzyme assay", "details": "Compound concentration 10.0 uM"}, "[9]": {"molecular_target": "Neprilysin (Homo sapiens) (UniProt P08473)", "sequence (P08473 whole entry)": "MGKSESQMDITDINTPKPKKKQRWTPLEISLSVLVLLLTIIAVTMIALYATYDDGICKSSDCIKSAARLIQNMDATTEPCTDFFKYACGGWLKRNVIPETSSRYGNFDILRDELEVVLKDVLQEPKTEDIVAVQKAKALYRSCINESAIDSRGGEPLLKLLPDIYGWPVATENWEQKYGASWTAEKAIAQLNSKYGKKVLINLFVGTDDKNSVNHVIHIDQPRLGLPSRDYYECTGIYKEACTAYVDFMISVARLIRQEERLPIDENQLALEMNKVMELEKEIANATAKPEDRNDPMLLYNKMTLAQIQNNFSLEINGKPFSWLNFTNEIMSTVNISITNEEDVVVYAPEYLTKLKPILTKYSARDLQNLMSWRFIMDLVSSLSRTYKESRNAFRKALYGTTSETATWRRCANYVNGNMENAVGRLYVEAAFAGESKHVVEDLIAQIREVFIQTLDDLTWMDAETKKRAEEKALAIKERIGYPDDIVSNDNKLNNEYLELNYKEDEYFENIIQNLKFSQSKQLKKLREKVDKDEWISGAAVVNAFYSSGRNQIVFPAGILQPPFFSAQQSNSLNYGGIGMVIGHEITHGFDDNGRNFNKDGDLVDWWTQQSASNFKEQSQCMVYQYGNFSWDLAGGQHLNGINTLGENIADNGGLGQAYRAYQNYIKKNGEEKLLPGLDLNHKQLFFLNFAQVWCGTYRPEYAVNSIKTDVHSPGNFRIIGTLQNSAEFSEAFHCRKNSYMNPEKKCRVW", "test": "Peptidase, Metalloproteinase, Neutral Endopeptidase Eurofins-Panlabs enzyme assay", "details": "Compound concentration 10.0 uM"}, "[10]": {"test": "(§1) Phosphodiesterase PDE6 Eurofins-Panlabs enzyme assay", "parameters": "species or system Bos taurus; substrate with concentration [3H] cGMP + cGMP, incubation time 20 min, incubation temperature 25 °C"}, "Bos taurus": {"species": "Bos taurus", "test": "as §1", "parameters": "substrate with concentration [3H] cGMP + cGMP, incubation time 20 min, incubation temperature 25 °C"}, "[11]": {"molecular_target": "Vascular endothelial growth factor receptor 1 (Homo sapiens) (UniProt P17948)", "test": "Protein Tyrosine Kinase, FLT1 (VEGFR-1) Eurofins-Panlabs enzyme assay", "details": "Compound concentration 10.0 uM"}, "[12]": {"molecular_target": "C-C chemokine receptor type 5 (Homo sapiens) (UniProt P51681)", "test": "Chemokine CCR5 Eurofins-Panlabs radioligand binding assay", "details": "Compound concentration 10.0 uM"}, "[13]": {"test": "(§2) Cholecystokinin CCK2 (CCKB) Eurofins-Panlabs radioligand binding assay", "parameters": "species or system Homo sapiens; ligand concentration 0.072 nM, non-specific ligand with concentration 1 µM Sincalide, incubation time 3 h, incubation temperature 25 °C"}, "Homo sapiens [14]": {"species": "Homo sapiens", "test": "as §2", "parameters": "ligand concentration 0.072 nM, non-specific ligand with concentration 1 µM Sincalide, incubation time 3 h, incubation temperature 25 °C"}, "Homo sapiens [15]": {"species": "Homo sapiens", "test": "Estrogen ERbeta Eurofins-Panlabs radioligand binding assay", "details": "Compound concentration 10.0 uM"}, "[16]": {"molecular_target": "Glutamate NMDA receptor; GRIN1/GRIN2A (Homo sapiens) (UniProt Q05586+Q12879)", "test": "NMDA-NR1a/NR2a Eurofins-Panlabs radioligand binding assay", "assay_type": "protein-complex assay", "details": "Compound concentration 10.0 uM"}, "[17]": {"molecular_target": "Prostacyclin receptor (Homo sapiens) (UniProt P43119)", "test": "Prostanoid IP Eurofins-Panlabs radioligand binding assay", "parameters": "ligand concentration 5 nM", "details": "Compound concentration 10.0 uM"}, "[18]": {"molecular_target": "SNF-related serine/threonine-protein kinase (Homo sapiens) (UniProt Q9NRH2)", "sequence (Q9NRH2 whole entry)": "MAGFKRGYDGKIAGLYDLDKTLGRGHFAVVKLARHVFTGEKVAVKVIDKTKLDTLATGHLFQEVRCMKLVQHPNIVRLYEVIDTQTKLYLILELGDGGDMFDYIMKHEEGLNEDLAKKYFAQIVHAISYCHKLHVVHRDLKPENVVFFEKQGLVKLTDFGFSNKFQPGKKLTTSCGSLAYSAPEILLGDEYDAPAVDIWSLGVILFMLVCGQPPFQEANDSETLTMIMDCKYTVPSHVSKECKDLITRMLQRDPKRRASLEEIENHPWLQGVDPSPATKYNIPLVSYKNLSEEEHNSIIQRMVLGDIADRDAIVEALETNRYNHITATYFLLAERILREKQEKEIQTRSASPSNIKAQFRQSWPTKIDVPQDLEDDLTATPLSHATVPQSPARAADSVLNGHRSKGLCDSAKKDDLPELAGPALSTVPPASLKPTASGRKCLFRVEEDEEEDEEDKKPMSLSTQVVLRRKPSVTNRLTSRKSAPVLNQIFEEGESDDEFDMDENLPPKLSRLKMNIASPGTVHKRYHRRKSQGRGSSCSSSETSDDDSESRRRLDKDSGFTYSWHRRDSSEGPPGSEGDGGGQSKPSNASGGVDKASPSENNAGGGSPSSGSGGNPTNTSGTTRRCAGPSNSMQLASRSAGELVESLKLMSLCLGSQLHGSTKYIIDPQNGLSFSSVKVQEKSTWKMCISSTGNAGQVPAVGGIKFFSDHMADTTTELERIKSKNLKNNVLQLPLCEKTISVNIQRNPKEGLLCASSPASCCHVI", "details": "Compound concentration 1000.0 nM"}, "[19]": {"molecular_target": "Glutamate NMDA receptor (Rattus norvegicus) (UniProt P35439+Q00959+Q00960+Q00961+Q62645+Q8VHN2+Q9R1M7)", "details": "Compound concentration 10.0 uM"}, "[20]": {"molecular_target": "Histamine H2 receptor (Homo sapiens) (UniProt P25021)", "sequence (P25021 whole entry)": "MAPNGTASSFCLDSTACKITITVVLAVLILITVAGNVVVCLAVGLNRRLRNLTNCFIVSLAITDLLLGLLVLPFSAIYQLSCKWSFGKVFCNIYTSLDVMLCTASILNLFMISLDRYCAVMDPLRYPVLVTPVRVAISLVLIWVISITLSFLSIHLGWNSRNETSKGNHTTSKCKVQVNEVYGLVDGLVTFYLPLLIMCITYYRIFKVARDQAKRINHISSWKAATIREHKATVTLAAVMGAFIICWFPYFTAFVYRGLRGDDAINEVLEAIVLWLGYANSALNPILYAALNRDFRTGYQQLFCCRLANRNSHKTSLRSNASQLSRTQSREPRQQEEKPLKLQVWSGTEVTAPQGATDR"}, "[21]": {"molecular_target": "Mu-type opioid receptor (Homo sapiens) (UniProt P35372)", "sequence (P35372 whole entry)": "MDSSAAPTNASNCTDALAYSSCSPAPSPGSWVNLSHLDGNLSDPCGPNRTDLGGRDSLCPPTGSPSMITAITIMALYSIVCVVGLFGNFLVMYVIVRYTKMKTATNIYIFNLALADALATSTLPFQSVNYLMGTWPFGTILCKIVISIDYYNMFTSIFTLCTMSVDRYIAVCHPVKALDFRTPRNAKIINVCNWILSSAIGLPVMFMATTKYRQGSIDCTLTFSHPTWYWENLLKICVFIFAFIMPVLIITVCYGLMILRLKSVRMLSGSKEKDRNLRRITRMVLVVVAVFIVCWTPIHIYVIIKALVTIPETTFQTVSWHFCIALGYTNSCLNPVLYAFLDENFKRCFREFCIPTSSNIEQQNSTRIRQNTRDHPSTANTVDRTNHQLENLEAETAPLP", "details": "Compound concentration 10.0 uM"}, "[22]": {"molecular_target": "T2, 5-hydroxytryptamine receptor 1A (Homo sapiens) (UniProt P08908)", "T2 sequence (whole entry)": "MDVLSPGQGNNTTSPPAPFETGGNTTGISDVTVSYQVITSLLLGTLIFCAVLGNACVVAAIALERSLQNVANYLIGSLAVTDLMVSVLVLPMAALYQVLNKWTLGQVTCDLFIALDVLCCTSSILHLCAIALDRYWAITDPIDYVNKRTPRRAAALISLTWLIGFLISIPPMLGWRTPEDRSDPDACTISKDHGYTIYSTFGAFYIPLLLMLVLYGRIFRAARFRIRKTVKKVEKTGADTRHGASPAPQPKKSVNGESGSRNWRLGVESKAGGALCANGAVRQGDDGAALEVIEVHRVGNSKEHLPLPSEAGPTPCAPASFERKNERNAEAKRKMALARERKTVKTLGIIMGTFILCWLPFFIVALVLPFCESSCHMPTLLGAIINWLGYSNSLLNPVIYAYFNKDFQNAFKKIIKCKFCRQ"}, "Insulin receptor": {"molecular_target": "Insulin receptor (Homo sapiens, UniProt P06213)", "sequence (P06213 28-758 limits assumed)": "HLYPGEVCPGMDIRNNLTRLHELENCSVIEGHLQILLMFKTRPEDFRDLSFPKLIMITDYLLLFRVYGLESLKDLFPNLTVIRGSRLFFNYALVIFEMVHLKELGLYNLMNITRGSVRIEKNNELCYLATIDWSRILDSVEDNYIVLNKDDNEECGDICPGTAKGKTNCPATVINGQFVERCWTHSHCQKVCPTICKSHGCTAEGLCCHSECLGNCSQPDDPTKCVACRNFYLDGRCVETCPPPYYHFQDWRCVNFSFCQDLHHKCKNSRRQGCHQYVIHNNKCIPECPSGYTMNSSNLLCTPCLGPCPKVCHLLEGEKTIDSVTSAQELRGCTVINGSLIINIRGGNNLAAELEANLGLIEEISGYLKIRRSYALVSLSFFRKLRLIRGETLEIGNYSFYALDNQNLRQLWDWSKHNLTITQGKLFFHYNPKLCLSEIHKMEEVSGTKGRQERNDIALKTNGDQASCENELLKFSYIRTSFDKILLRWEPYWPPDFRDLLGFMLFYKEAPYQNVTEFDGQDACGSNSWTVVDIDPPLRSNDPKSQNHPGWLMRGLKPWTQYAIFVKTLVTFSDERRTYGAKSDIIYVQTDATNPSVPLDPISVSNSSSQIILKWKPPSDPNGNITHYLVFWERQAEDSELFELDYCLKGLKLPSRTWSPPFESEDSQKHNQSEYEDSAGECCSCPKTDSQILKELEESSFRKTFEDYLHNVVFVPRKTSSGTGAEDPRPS", "sequence (P06213 763-1382 limits assumed)": "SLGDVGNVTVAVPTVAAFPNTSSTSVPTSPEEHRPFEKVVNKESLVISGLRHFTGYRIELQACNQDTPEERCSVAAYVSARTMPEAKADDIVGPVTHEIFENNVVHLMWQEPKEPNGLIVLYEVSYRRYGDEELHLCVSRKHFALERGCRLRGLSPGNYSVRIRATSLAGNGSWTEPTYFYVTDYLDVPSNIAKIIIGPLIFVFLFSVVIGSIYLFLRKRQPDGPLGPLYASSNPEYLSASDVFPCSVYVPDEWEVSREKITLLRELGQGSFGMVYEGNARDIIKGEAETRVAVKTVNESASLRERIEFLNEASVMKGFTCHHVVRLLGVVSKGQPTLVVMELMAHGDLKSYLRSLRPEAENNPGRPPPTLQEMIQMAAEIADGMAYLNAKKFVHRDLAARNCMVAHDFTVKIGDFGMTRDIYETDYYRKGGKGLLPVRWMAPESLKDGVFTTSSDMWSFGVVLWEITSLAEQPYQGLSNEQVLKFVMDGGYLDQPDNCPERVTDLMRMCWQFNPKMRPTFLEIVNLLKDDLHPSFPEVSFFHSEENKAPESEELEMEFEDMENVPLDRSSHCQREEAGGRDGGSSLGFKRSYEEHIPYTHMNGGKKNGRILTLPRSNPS", "details": "Rattus norvegicus; Compound concentration 10.0 uM"}},
  "data": [
    {"smiles": "O=C(O)c1cc(-c2ccc(C3CCNCC3)cc2)c2ccc(-c3ccc(C(F)(F)F)cc3)cc2c1", "note": "[PPTN]", "values": [
      {"measurement": "inhibition at 3 h, 10 µM", "setting": "[1]", "value": "11% (not active)"},
      {"measurement": "inhibition", "setting": "[2]", "value": 11, "unit": "%"},
      {"measurement": "inhibition", "setting": "[3]", "value": 4, "unit": "%"},
      {"measurement": "inhibition", "setting": "Oryctolagus cuniculus", "value": 14, "unit": "%"},
      {"measurement": "IC50", "setting": "[4]", "value": 3.3, "unit": "µM"},
      {"measurement": "Ki", "setting": "[4]", "value": 3.27, "unit": "µM"},
      {"measurement": "inhibition", "setting": "[5]", "value": 5, "unit": "%"},
      {"measurement": "inhibition", "setting": "[6]", "value": 34, "unit": "%"},
      {"measurement": "inhibition", "setting": "[7]", "value": 39, "unit": "%"},
      {"measurement": "inhibition", "setting": "Rattus norvegicus", "value": -5, "unit": "%"},
      {"measurement": "inhibition", "setting": "Caspase-6 (Homo sapiens)", "value": -8, "unit": "%"},
      {"measurement": "inhibition", "setting": "[8]", "value": 12, "unit": "%"},
      {"measurement": "inhibition", "setting": "[9]", "value": 1, "unit": "%"},
      {"measurement": "IC50", "setting": "[10]", "value": 32.9, "unit": "µM"},
      {"measurement": "inhibition", "setting": "Bos taurus; Compound concentration 0.1 uM", "value": 2, "unit": "%"},
      {"measurement": "inhibition", "setting": "Bos taurus; Compound concentration 1.0 uM", "value": 4, "unit": "%"},
      {"measurement": "inhibition", "setting": "Bos taurus; Compound concentration 10.0 uM", "value": 35, "unit": "%"},
      {"measurement": "inhibition", "setting": "Bos taurus; Compound concentration 100.0 uM", "value": 66, "unit": "%"},
      {"measurement": "inhibition", "setting": "[11]", "value": -2, "unit": "%"},
      {"measurement": "inhibition", "setting": "[12]", "value": 4, "unit": "%"},
      {"measurement": "IC50", "setting": "[13]", "value": 10, "unit": "µM"},
      {"measurement": "inhibition", "setting": "Homo sapiens [14]; Compound concentration 0.01 uM", "value": 3, "unit": "%"},
      {"measurement": "inhibition", "setting": "Homo sapiens [14]; Compound concentration 0.1 uM", "value": -1, "unit": "%"},
      {"measurement": "inhibition", "setting": "Homo sapiens [14]; Compound concentration 1.0 uM", "value": 0, "unit": "%"},
      {"measurement": "inhibition", "setting": "Homo sapiens [14]; Compound concentration 10.0 uM", "value": 48, "unit": "%"},
      {"measurement": "inhibition", "setting": "Homo sapiens [15]", "value": 1, "unit": "%"},
      {"measurement": "inhibition", "setting": "[16]", "value": 12, "unit": "%"},
      {"measurement": "inhibition", "setting": "[17]", "value": -3, "unit": "%"},
      {"measurement": "residual activity", "setting": "[18]", "value": 71, "unit": "%"},
      {"measurement": "inhibition", "setting": "[19]", "value": -4, "unit": "%"},
      {"measurement": "inhibition", "setting": "[20]; Compound concentration 0.01 uM", "value": 9, "unit": "%"},
      {"measurement": "inhibition", "setting": "[20]; Compound concentration 0.1 uM", "value": 4, "unit": "%"},
      {"measurement": "inhibition", "setting": "[20]; Compound concentration 1.0 uM", "value": 7, "unit": "%"},
      {"measurement": "inhibition", "setting": "[20]; Compound concentration 10.0 uM", "value": 101, "unit": "%"},
      {"measurement": "inhibition", "setting": "[21]", "value": -1, "unit": "%"},
      {"measurement": "inhibition", "setting": "[22]; Compound concentration 0.01 uM", "value": 0, "unit": "%"},
      {"measurement": "inhibition", "setting": "[22]; Compound concentration 0.1 uM", "value": -2, "unit": "%"},
      {"measurement": "inhibition", "setting": "[22]; Compound concentration 1.0 uM", "value": 4, "unit": "%"},
      {"measurement": "inhibition", "setting": "[22]; Compound concentration 10.0 uM", "value": 64, "unit": "%"},
      {"measurement": "inhibition", "setting": "Insulin receptor", "value": -8, "unit": "%"}
    ]}
  ]
}
